The record followed here is patent publication US20080033006A1, “1,2,4-Triazolo[ 1,5-A] Pyridines as Gastric Acid Secretion Inhibitors” (Altana Pharma AG, priority 2004, published 2008).

Structures are written as SMILES.

Data set [1] deals with pentagastrin-stimulated acid secretion of the perfused rat stomach. Briefly: Secretion-inhibiting action on the perfused rat stomach (pentagastrin-stimulated acid secretion). To be noted: anesthetized CD rat, dose 1 μmol/kg i.d.; for inhibition in vivo at 1 µmol/kg: intraduodenal. It is filed as in vivo. From the text: In Table A which follows, the influence of the compounds according to the invention on the pentagastrin-stimulated acid secretion of the perfused rat stomach after intraduodenal administration in vivo is shown.
The abdomen of anesthetized rats (CD rat, female, 200-250 g; 1.5 g/kg i.m. urethane) was opened after tracheotomy by a median upper abdominal incision and a PVC catheter was fixed transorally in the esophagus and another via the pylorus such that the ends of the tubes just projected into the gastric lumen. The catheter leading from the pylorus led outward into the right abdominal wall through a side opening.
After thorough rinsing (about 50-100 ml), warm (37° C.) physiological NaCl solution was continuously passed through the stomach ([…], pH 6.8-6.9; Braun-Unita I). The pH (pH meter 632, glass electrode EA 147; φ=5 mm, Metrohm) and, by titration with a freshly prepared 0.01N NaOH solution to pH 7 (Dosimat 665 Metrohm), the secreted HCl were determined in the effluent in each case collected at an interval of 15 minutes.
The gastric secretion was stimulated by continuous infusion of 1 μg/kg (=1.65 ml/h) of i.v. pentagastrin (left femoral vein) about 30 min after the end of the operation (i.e. after determination of 2 preliminary fractions). The substances to be tested were administered intraduodenally in a 2.5 ml/kg liquid volume 60 min after the start of the continuous pentagastrin infusion.
The body temperature of the animals was kept at a constant 37.8-38° C. by infrared irradiation and heat pads (automatic, stepless control by means of a rectal temperature sensor).

`CCc1cccc(C)c1CNc1cc(CNC)cn2nc(C)nc12` [Example 8, 8-(2-Ethyl-6-methylbenzylamino)-6-methylaminomethyl-2-methyl[1,2,4]triazolo-[1,5-a]-pyridine]: the melting point was 179 °C. In addition, the inhibition in vivo at 1 µmol/kg in data set [1] is over 25%. `CCc1cccc(C)c1CNc1cc(CN(C)C)cn2nc(C)nc12.Cl` [Example 7, 8-(2-Ethyl-6-methylbenzylamino)-6-dimethylaminomethyl-2-methyl[1,2,4]triazolo[1,5-a]pyridine hydrochloride]: the melting point turned out to be 235.8 °C. The inhibition in vivo at 1 µmol/kg in data set [1] was over 25%. `CCc1cccc(C)c1CNc1cc(COC)cn2nc(C)nc12` [Example 5, 8-(2-Ethyl-6-methylbenzylamino)-6-methoxymethyl-2-methyl[1,2,4]triazolo-[1,5-a]pyridine] yielded a melting point of 98.7 °C. In data set [1], this compound gave an inhibition in vivo at 1 µmol/kg of over 25%. As to `CCc1cccc(C)c1CNc1cc(C(=O)O)cn2nc(C)nc12` [Example 2, 8-(2-Ethyl-6-methyl-benzylamino)-2-methyl[1,2,4]triazolo[1,5-a]pyridine-6-carboxylic acid], the melting point worked out at 264.1 °C.

Turning to `CCc1cccc(C)c1CNc1cc(COCCOC)cn2nc(C)nc12.Cl` [Example 13, 8-(2-Ethyl-6-methylbenzylamino)-6-(2-methoxyethoxymethyl)-2-methyl-[1,2,4]triazolo[1,5-a]pyridine hydrochloride], the melting point came to 120.2 °C. Further, in data set [1], the inhibition in vivo at 1 µmol/kg is over 25%. For the compound `CCc1cccc(C)c1CNc1cc(C(=O)N(C)C)cn2nc(C)nc12` [Example 3, 8-(2-Ethyl-6-methylbenzylamino)-N,N,2-trimethyl[1,2,4]triazolo[1,5-a]pyridine-6-carboxamide], the inhibition in vivo at 1 µmol/kg in data set [1] is over 25%.

Turning to `CCc1cccc(C)c1CNc1cc(CN2CCOCC2)cn2nc(C)nc12` [Example 10, 8-(2-Ethyl-6-methylbenzylamino)-6-morpholinomethyl-2-methyl[1,2,4]triazolo-[1,5-a]-pyridine], the melting point is 97.2 °C. Further, the inhibition in vivo at 1 µmol/kg in data set [1] was under 25%. Compound `CCc1cccc(C)c1CNc1cc(Cn2ccnc2)cn2nc(C)nc12` [Example 11, 8-(2-Ethyl-6-methylbenzylamino)-6-(imidazol-1-ylmethyl)-2-methyl[1,2,4]triazolo-[1,5-a]-pyridine] returned a melting point of 158.5 °C. Moreover, the inhibition in vivo at 1 µmol/kg in data set [1] was over 25%. Compound `CCc1cccc(C)c1CNc1cc(CO)cn2nc(C)nc12` [Example 6, 8-(2-Ethyl-6-methylbenzylamino)-6-hydroxymethyl-2-methyl[1,2,4]triazolo-[1,5-a]pyridine] registered a melting point of 180.3 °C. Further, the inhibition in vivo at 1 µmol/kg in data set [1] is under 25%. `CCc1cccc(C)c1CNc1cc(C(=O)OC)cn2nc(C)nc12` [Example 1, 8-(2-Ethyl-6-methylbenzylamino)-2-methyl[1,2,4]triazolo[1,5-a]pyridine-6-carboxylic acid methyl ester] returned a melting point of 139.8 °C. As to `CCc1cccc(C)c1CNc1cc(CN)cn2nc(C)nc12` [Example 9, 8-(2-Ethyl-6-methylbenzylamino)-6-aminomethyl-2-methyl[1,2,4]triazolo-[1,5-a]pyridine], the inhibition in vivo at 1 µmol/kg in data set [1] is under 25%. As to `CCc1cccc(C)c1CNc1cc(C(=O)NCCOC)cn2nc(C)nc12` [Example 4, 8-(2-Ethyl-6-methylbenzylamino)-N-(2-methoxyethyl)-2-methyl[1,2,4]triazolo-[1,5a]-pyridine-6-carboxamide], in data set [1], the “Inhibition of acid secretion” value is under 25%.
